According to US20090215908A1, “TOLL LIKE RECEPTOR (TLR) SIGNALING ANTAGONIST” (RELIANCE LIFE SCIENCES PVT. LTD., priority 2007, published 2009):

Legend:
TNF = assay: Pre-screen of anti-TNF activity, cells + LPS (Table 2); format: cell-based
TLR4 [1] = biological target: T1, TLR4 (Homo sapiens, UniProt O00206); assay: TLR4 ligand induced TNF-α secretion in THP-1 cells (ELISA); format: cell-based; settings: 1 hr pretreatment, TLR4 ligand 750 ng/ml, 24 hrs
T1 construct: endogenous in cells
Protocol: (§1) The present invention has checked the effect of various TLR ligands on THP-1 monocytes, PBMCs and their ability to activate and release TNF-α. For this purpose about 9 TLR ligands were used. These ligands were obtained from Apotech Cat; APO-54N-018-K101 and assayed for TNF-α release in culture supernatants. THP-1 (FIG. 1a) and PBMCs (2×10^5 cells/well) (FIG. 1b) were plated in 96-well plate. The cells were pretreated with RSCL-0520 in DMSO 1 hr prior to TLR ligand treatment. Following 1 hr pre-treatment, the cells were treated with TLR ligands [TLR2, TLR5 and TLR6-75 ng/ml each, TLR3-75 μg/ml, TLR4-750 ng/ml, TLR7, TLR8 and TLR9-7.5 μg/ml) for 24 hrs. The culture supernatant were collected after the stipulated time and assayed for TNF-α release using a Duoset Enzyme-Linked ImmunoSorbent Assay (ELISA) detection Kit (R&D systems, MN 55413, USA; Cat: DY-210 E). Simultaneously, supernatants from cells treated with ligands without RSCL-0520 pre-treatment and RSCL-0520 without ligand treatment were collected which served as respective controls.

serum TNF-α [2] = assay: LPS induced TNF-α release in Balb/c mice, treatment post LPS; format: in vivo
Protocol: (§2) The present invention has studied the ability of RSCL-0520 to exert protection against inflammatory agents in a mice (Balb/c) model. Balb/c (5-6 weeks) mice were injected with LPS (225 μg) intraperitoneally with and without pretreatment of RSCL-0520 (10 and 20 mg/kg). The compound was injected intraperitoneally 30 min before LPS treatment. The mice were monitored for 1 hr post LPS treatment. Untreated mice served as controls. Blood from retro-orbital plexus was collected under anesthesia 1 hr post LPS injection. Serum collected was analysed for TNF-α secretion using an ELISA detection kit.
Our results have more significance from the post LPS treatment of RSCL-0520. Here we have stimulated the inflammation process in mice with an injection of LPS (225 μg) intraperitoneally and 30 min post LPS, we have challenged the ability of RSCL-0520 at two different doses (10 mg/kg, 20 mg/kg) to inhibit the TNF-α secretion.

serum TNF-α [3] = assay: LPS induced TNF-α release in Balb/c mice, pre-treatment; format: in vivo; settings: serum 1 hr post LPS
Protocol: as §2

THP-1 cells = assay: Toxicity to THP-1 cells by MTT assay; format: cell-based, human; settings: analyzed in tandem with TNF-α assay
From the text: The toxicity of RSCL-0520 (FIG. 2b) was also by treating cells with RSCL-0520 by MTT assay. […] The viability of the cells (analyzed in tandem by MTT) was not affected by RSCL-0520 indicating its non-toxic nature.

TLR4 [4] = biological target: T1, TLR4; assay: TLR4 ligand induced TNF-α secretion in PBMCs (ELISA); format: cell-based; settings: 1 hr pretreatment, TLR4 ligand 750 ng/ml, 24 hrs
Protocol: as §1

T1 sequence (O00206 24-839): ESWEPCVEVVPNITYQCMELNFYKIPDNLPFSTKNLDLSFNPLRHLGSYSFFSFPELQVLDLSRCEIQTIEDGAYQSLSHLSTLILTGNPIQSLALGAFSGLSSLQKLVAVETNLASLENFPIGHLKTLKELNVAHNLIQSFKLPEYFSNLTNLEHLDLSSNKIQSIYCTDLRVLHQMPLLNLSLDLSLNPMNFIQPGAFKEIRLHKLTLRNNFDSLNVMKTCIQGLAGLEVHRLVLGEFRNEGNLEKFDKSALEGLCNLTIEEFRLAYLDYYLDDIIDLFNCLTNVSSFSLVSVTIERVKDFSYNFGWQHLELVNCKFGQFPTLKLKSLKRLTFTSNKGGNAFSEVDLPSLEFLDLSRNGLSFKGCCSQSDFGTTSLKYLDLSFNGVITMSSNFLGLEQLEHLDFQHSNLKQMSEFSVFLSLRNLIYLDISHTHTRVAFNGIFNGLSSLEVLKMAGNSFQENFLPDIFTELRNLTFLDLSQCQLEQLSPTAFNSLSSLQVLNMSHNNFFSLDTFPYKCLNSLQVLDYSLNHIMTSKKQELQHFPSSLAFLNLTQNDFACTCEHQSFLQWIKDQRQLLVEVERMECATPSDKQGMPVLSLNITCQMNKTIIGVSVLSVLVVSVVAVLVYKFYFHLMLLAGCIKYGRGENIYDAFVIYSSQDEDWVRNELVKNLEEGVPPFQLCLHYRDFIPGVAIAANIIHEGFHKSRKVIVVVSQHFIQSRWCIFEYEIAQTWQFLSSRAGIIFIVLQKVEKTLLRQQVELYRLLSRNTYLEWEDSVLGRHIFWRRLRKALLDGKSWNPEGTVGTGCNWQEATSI
T1 sequence (Q9Y6Y9 17-160 partner limits assumed): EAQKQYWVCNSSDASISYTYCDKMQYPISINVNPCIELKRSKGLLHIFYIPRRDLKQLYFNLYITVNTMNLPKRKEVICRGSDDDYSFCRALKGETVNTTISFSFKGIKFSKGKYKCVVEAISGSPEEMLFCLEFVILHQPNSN

| Structure (SMILES) | inhibition at 1 µM (TNF; Cells + 1 μM + LPS) [%] | inhibition at 10 µM (TNF; Cells + 10 μM + LPS) [%] | inhibition at 50 µM (TNF; Cells + 50 μM + LPS) [%] | inhibition at 100 µM (TNF; Cells + 100 μM + LPS) [%] | also measured |
| --- | --- | --- | --- | --- | --- |
| COc1c(O)cc2ccc3cc(O)ccc3c2c1OC [RSCL-0518, 2,7-dihydroxy-3,4-dimethoxyphenanthrene] | 0 | 0 | 39 | 87 | – |
| COc1c(OC(C)=O)cc2ccc3cc(OC(C)=O)ccc3c2c1OC [RSCL-0519, 2,7-diacetoxy-3,4-dimethoxyphenanthrene] | 0 | 0 | 21 | 72 | – |
| COc1cc(O)c2c(c1)CCc1c-2ccc(OC)c1O [RSCL-0520, 1,5-dihydroxy-2,7-dimethoxy-9,10-dihydrophenanthrene] | 4 | 40 | 95 | 100 | decrease of TNF-α production (TLR4 [1]): ~50%; inhibition of TNF secretion (serum TNF-α [2]; 10 mg/kg given 30 min post LPS 225 μg i.p.): ~38%; inhibition of TNF secretion (serum TNF-α [2]; 20 mg/kg given 30 min post LPS 225 μg i.p.): 49%; reduction of serum TNF production (serum TNF-α [3]; 10 mg/kg i.p. 30 min before LPS 225 μg i.p.): ~66%; reduction of serum TNF production (serum TNF-α [3]; 20 mg/kg i.p. 30 min before LPS 225 μg i.p.): ~70%; viability of the cells (MTT) (THP-1 cells): not affected; decrease of TNF-α production (TLR4 [4]): ~50% |
| COc1cc2c(c(OC(C)=O)c1)-c1ccc(OC)c(OC(C)=O)c1CC2 [RSCL-0521, 1,5-diacetoxy-2,7-dimethoxy-9,10-dihydrophenanthrene] | 0 | 13 | 76 | 92 | – |
| COc1c(OC(=O)/C=C/c2ccc(OC(C)=O)c(OC(C)=O)c2)cc2ccc3cc(OC(=O)/C=C/c4ccc(OC(C)=O)c(OC(C)=O)c4)ccc3c2c1OC [RSCL-0522, 3,4-dimethoxyphenanthrene-2,7-bis-[(2E)-3-[3,4-bis(acetyloxy)phenyl] acrylate] | – | – | – | – | % TNF Inhibition (TNF; Cells + 1 μM + LPS): 0%; % TNF Inhibition (TNF; Cells + 10 μM + LPS): 12%; % TNF Inhibition (TNF; Cells + 50 μM + LPS): 37%; % TNF Inhibition (TNF; Cells + 100 μM + LPS): 34% |
| COc1ccc2c(ccc3cc(OC)c(OC)c(OC)c32)c1 [RSCL-0575, 2,3,4,7-tetramethoxyphenanthrene] | 26 | 33 | 32 | 49 | – |
| COc1cc(OCc2ccccc2)c2c(ccc3c(OCc4ccccc4)c(OC)ccc32)c1 [RSCL-0638, 1,5-dibenzyloxy-2,7-dimethoxy phenanthrene] | 0 | 0 | 0 | 0 | – |
